# Test results reported in the supplement of paper PMC10307832.
# Assays:
# Experiment in all cases: relative viability (nuclei count vs DMSO), 5 days (fraction); higher = more cells survive
# NCI-H1651 = system: NCI-H1651
# Procedure, shortened: (§1)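 Relative viability was taken as the ratio of nuclei in treated wells to nuclei in vehicle wells. Lung cancer cell lines in 1536-well plates received compounds by pin tool one day after seeding, either one drug alone or a fixed anchor-drug dose plus five library-drug doses (not always all listed) in √10 steps. Nuclei were counted on 4× images after 5 days of treatment, and values are medians of duplicate plates.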
# NCI-H1437 = system: NCI-H1437
# Procedure, shortened: as §1
# CAL-12T = system: CAL-12T
# Procedure, shortened: as §1
# NCI-H358 = system: NCI-H358
# Procedure, shortened: as §1
# BEN = system: BEN
# Procedure, shortened: as §1
# SK-LU-1 = system: SK-LU-1
# Procedure, shortened: as §1
# HCC-366 = system: HCC-366
# Procedure, shortened: as §1
# NCI-H1734 = system: NCI-H1734
# Procedure, shortened: as §1
# COR-L23 = system: COR-L23
# Procedure, shortened: as §1
# LU99A = system: LU99A
# Procedure, shortened: as §1
# NCI-H460 = system: NCI-H460
# Procedure, shortened: as §1
# LOU-NH91 = system: LOU-NH91
# Procedure, shortened: as §1
# NCI-H441 = system: NCI-H441
# Procedure, shortened: as §1
# NCI-H2023 = system: NCI-H2023
# Procedure, shortened: as §1
# NCI-H1355 = system: NCI-H1355
# Procedure, shortened: as §1
# NCI-H1975 = system: NCI-H1975
# Procedure, shortened: as §1
# NCI-H1650 = system: NCI-H1650
# Procedure, shortened: as §1
# NCI-H2085 = system: NCI-H2085
# Procedure, shortened: as §1
# NCI-H1793 = system: NCI-H1793
# Procedure, shortened: as §1
# NCI-H838 = system: NCI-H838
# Procedure, shortened: as §1
# NCI-H2342 = system: NCI-H2342
# Procedure, shortened: as §1
smiles,measurement,setting,value
Nc1ccn([C@@H]2O[C@H](CO)[C@@H](O)[C@@H]2O)c(=O)n1 [Cytarabine] + CC(=O)c1c(C)c2cnc(Nc3ccc(N4CCNCC4)cn3)nc2n(C2CCCC2)c1=O [Palbociclib] (partner 0.5 µM),relative viability,NCI-H1651; first compound 0.005 µM,0.508
same,relative viability,NCI-H1651; first compound 0.01581 µM,0.514
same,relative viability,NCI-H1651; first compound 0.05 µM,0.551
same,relative viability,NCI-H1651; first compound 0.1581 µM,0.374
same,relative viability,NCI-H1651; first compound 0.5 µM,0.277
same,relative viability,NCI-H1437; first compound 0.005 µM,0.284
same,relative viability,NCI-H1437; first compound 0.01581 µM,0.28
same,relative viability,NCI-H1437; first compound 0.05 µM,0.237
same,relative viability,NCI-H1437; first compound 0.1581 µM,0.192
same,relative viability,NCI-H1437; first compound 0.5 µM,0.196
same,relative viability,CAL-12T; first compound 0.005 µM,0.341
same,relative viability,CAL-12T; first compound 0.01581 µM,0.389
same,relative viability,CAL-12T; first compound 0.05 µM,0.421
same,relative viability,CAL-12T; first compound 0.1581 µM,0.193
same,relative viability,CAL-12T; first compound 0.5 µM,0.146
same,relative viability,NCI-H358; first compound 0.005 µM,0.126
same,relative viability,NCI-H358; first compound 0.01581 µM,0.115
same,relative viability,NCI-H358; first compound 0.05 µM,0.0934
same,relative viability,NCI-H358; first compound 0.1581 µM,0.0712
same,relative viability,NCI-H358; first compound 0.5 µM,0.0692
same,relative viability,BEN; first compound 0.005 µM,0.481
same,relative viability,BEN; first compound 0.01581 µM,0.431
same,relative viability,BEN; first compound 0.05 µM,0.458
same,relative viability,BEN; first compound 0.1581 µM,0.377
same,relative viability,BEN; first compound 0.5 µM,0.286
same,relative viability,SK-LU-1; first compound 0.005 µM,0.371
same,relative viability,SK-LU-1; first compound 0.01581 µM,0.419
same,relative viability,SK-LU-1; first compound 0.05 µM,0.271
same,relative viability,SK-LU-1; first compound 0.1581 µM,0.307
same,relative viability,SK-LU-1; first compound 0.5 µM,0.284
same,relative viability,HCC-366; first compound 0.005 µM,0.302
same,relative viability,HCC-366; first compound 0.01581 µM,0.287
same,relative viability,HCC-366; first compound 0.05 µM,0.245
same,relative viability,HCC-366; first compound 0.1581 µM,0.0953
same,relative viability,HCC-366; first compound 0.5 µM,0.0777
same,relative viability,NCI-H1734; first compound 0.005 µM,0.305
same,relative viability,NCI-H1734; first compound 0.01581 µM,0.214
same,relative viability,NCI-H1734; first compound 0.05 µM,0.237
same,relative viability,NCI-H1734; first compound 0.1581 µM,0.153
same,relative viability,NCI-H1734; first compound 0.5 µM,0.155
same,relative viability,COR-L23; first compound 0.005 µM,0.203
same,relative viability,COR-L23; first compound 0.01581 µM,0.228
same,relative viability,COR-L23; first compound 0.05 µM,0.176
same,relative viability,COR-L23; first compound 0.1581 µM,0.115
same,relative viability,COR-L23; first compound 0.5 µM,0.122
same,relative viability,LU99A; first compound 0.005 µM,0.409
same,relative viability,LU99A; first compound 0.01581 µM,0.399
same,relative viability,LU99A; first compound 0.05 µM,0.391
same,relative viability,LU99A; first compound 0.1581 µM,0.388
same,relative viability,LU99A; first compound 0.5 µM,0.288
same,relative viability,NCI-H460; first compound 0.005 µM,0.156
same,relative viability,NCI-H460; first compound 0.01581 µM,0.0617
same,relative viability,NCI-H460; first compound 0.05 µM,0.0499
same,relative viability,NCI-H460; first compound 0.1581 µM,0.0475
same,relative viability,NCI-H460; first compound 0.5 µM,0.044
same,relative viability,LOU-NH91; first compound 0.005 µM,0.478
same,relative viability,LOU-NH91; first compound 0.01581 µM,0.54
same,relative viability,LOU-NH91; first compound 0.05 µM,0.562
same,relative viability,LOU-NH91; first compound 0.1581 µM,0.432
same,relative viability,LOU-NH91; first compound 0.5 µM,0.412
same,relative viability,NCI-H441; first compound 0.005 µM,0.198
same,relative viability,NCI-H441; first compound 0.01581 µM,0.197
same,relative viability,NCI-H441; first compound 0.05 µM,0.168
same,relative viability,NCI-H441; first compound 0.1581 µM,0.139
same,relative viability,NCI-H441; first compound 0.5 µM,0.17
same,relative viability,NCI-H2023; first compound 0.005 µM,0.378
same,relative viability,NCI-H2023; first compound 0.01581 µM,0.221
same,relative viability,NCI-H2023; first compound 0.05 µM,0.129
same,relative viability,NCI-H2023; first compound 0.1581 µM,0.0971
same,relative viability,NCI-H2023; first compound 0.5 µM,0.088
same,relative viability,NCI-H1355; first compound 0.005 µM,0.595
same,relative viability,NCI-H1355; first compound 0.01581 µM,0.325
same,relative viability,NCI-H1355; first compound 0.05 µM,0.396
same,relative viability,NCI-H1355; first compound 0.1581 µM,0.28
same,relative viability,NCI-H1355; first compound 0.5 µM,0.232
same,relative viability,NCI-H1975; first compound 0.005 µM,0.453
same,relative viability,NCI-H1975; first compound 0.01581 µM,0.574
same,relative viability,NCI-H1975; first compound 0.05 µM,0.46
same,relative viability,NCI-H1975; first compound 0.1581 µM,0.283
same,relative viability,NCI-H1975; first compound 0.5 µM,0.212
same,relative viability,NCI-H1650; first compound 0.005 µM,0.317
same,relative viability,NCI-H1650; first compound 0.01581 µM,0.319
same,relative viability,NCI-H1650; first compound 0.05 µM,0.318
same,relative viability,NCI-H1650; first compound 0.1581 µM,0.163
same,relative viability,NCI-H1650; first compound 0.5 µM,0.186
same,relative viability,NCI-H2085; first compound 0.005 µM,0.445
same,relative viability,NCI-H2085; first compound 0.01581 µM,0.425
same,relative viability,NCI-H2085; first compound 0.05 µM,0.393
same,relative viability,NCI-H2085; first compound 0.1581 µM,0.294
same,relative viability,NCI-H2085; first compound 0.5 µM,0.266
same,relative viability,NCI-H1793; first compound 0.005 µM,0.341
same,relative viability,NCI-H1793; first compound 0.01581 µM,0.267
same,relative viability,NCI-H1793; first compound 0.05 µM,0.268
same,relative viability,NCI-H1793; first compound 0.1581 µM,0.228
same,relative viability,NCI-H1793; first compound 0.5 µM,0.262
same,relative viability,NCI-H838; first compound 0.005 µM,0.228
same,relative viability,NCI-H838; first compound 0.01581 µM,0.244
same,relative viability,NCI-H838; first compound 0.05 µM,0.209
same,relative viability,NCI-H838; first compound 0.1581 µM,0.2
same,relative viability,NCI-H838; first compound 0.5 µM,0.149
same,relative viability,NCI-H2342; first compound 0.005 µM,0.525
same,relative viability,NCI-H2342; first compound 0.01581 µM,0.557
same,relative viability,NCI-H2342; first compound 0.05 µM,0.502
same,relative viability,NCI-H2342; first compound 0.1581 µM,0.467
same,relative viability,NCI-H2342; first compound 0.5 µM,0.435
